Results reported in US20240315247A1, “MICROBIOCIDAL QUINOLINE DIHYDRO-(THIAZINE)OXAZINE DERIVATIVES” (SYNGENTA CROP PROTECTION AG, priority 2020, published 2024).

Columns and labels:
[1] = tested on: Monographella nivalis (Microdochium nivale); assay: Monographella nivalis (Microdochium nivale) / liquid culture (Foot rot cereals); type: cell-based; details: growth inhibition photometrically 4-5 days after application, compared to untreated control
Protocol: (§1) Monographella nivalis (Microdochium nivale)/Liquid Culture (Foot Rot Cereals) Conidia of the fungus from cryogenic storage are directly mixed into nutrient broth (PDB potato dextrose broth). After placing a (DMSO) solution of test compound into a microtiter plate (96-well format), the nutrient broth containing the fungal spores is added. The test plates are incubated at 24° C. and the inhibition of growth is determined photometrically 4-5 days after application.

[2] = tested on: Botryotinia fuckeliana (Botrytis cinerea); assay: Botryotinia fuckeliana (Botrytis cinerea) / liquid culture (Gray mould); type: cell-based; details: growth inhibition photometrically 3-4 days after application, compared to untreated control
Protocol: as §1, with “Botryotinia Fuckeliana (Botrytis cinerea)/Liquid” for “Monographella nivalis (Microdochium nivale)/Liquid”, “(Gray Mould)” for “(Foot Rot Cereals)”, “(Vogels” for “(PDB potato dextrose”, “3-4” for “4-5”

[3] = tested on: Glomerella lagenarium (Colletotrichum laqenarium); assay: Glomerella lagenarium (Colletotrichum lagenarium) / liquid culture (Anthracnose); type: cell-based; details: growth inhibition photometrically 3-4 days after application, compared to untreated control
Protocol: as §1, with “Glomerella lagenarium (Colletotrichum laqenarium)/liquid culture (Anthracnose)” for “Monographella nivalis (Microdochium nivale)/Liquid Culture (Foot Rot Cereals)”, “measured” for “determined”, “3-4” for “4-5”

With CC(C)CC1CC(C)(C)OC(c2cnc3c(F)c(F)ccc3c2)=N1 (stereo not drawn) [E.012, 2-(7,8-difluoro-3-quinolyl)-4-isobutyl-6,6-dimethyl-4,5-dihydro-1,3-oxazine] the inhibition of growth at 20 ppm [1] was no less than 80%, the inhibition of growth at 20 ppm [2] was no less than 80% and the inhibition of growth at 20 ppm [3] was no less than 80%.
Compound CC1(COc2ccc(F)cc2)CC(C)(C)OC(c2cnc3c(F)cccc3c2)=N1 (stereo not drawn) [E.04, 4-[(4-fluorophenoxy)methyl]-2-(8-fluoro-3-quinolyl)-4,6,6-trimethyl-5H-1,3-oxazine] has an inhibition of growth at 20 ppm [1] of no less than 80%, an inhibition of growth at 20 ppm [2] of no less than 80% and an inhibition of growth at 20 ppm [3] of no less than 80%.
Compound CC1(CC2CCCCC2)CC(C)(C)OC(c2cnc3c(F)c(F)ccc3c2)=N1 (stereo not drawn) [E.015, 4-(cyclohexylmethyl)-2-(7,8-difluoro-3-quinolyl)-4,6,6-trimethyl-5H-1,3-oxazine] has an inhibition of growth at 20 ppm [1] of no less than 80%, an inhibition of growth at 20 ppm [2] of no less than 80% and an inhibition of growth at 20 ppm [3] of no less than 80%.
Work on CC1(COc2ccccc2)CC(C)(C)OC(c2cnc3c(F)c(F)ccc3c2)=N1 (stereo not drawn) [E.06, 2-(7,8-difluoro-3-quinolyl)-4,6,6-trimethyl-4-(phenoxymethyl)-5H-1,3-oxazine] yielded a melting point of 105 to 107 °C, an inhibition of growth at 20 ppm [1] of no less than 80% and an inhibition of growth at 20 ppm [2] of no less than 80%.
CC1(COc2ccc(Br)cc2Br)CC(C)(C)OC(c2cnc3c(F)cccc3c2)=N1 (stereo not drawn) [E.02, 4-[(2,4-dibromophenoxy)methyl]-2-(8-fluoro-3-quinolyl)-4,6,6-trimethyl-5H-1,3-oxazine] showed an inhibition of growth at 20 ppm [1] of no less than 80% and an inhibition of growth at 20 ppm [2] of no less than 80%.
In the case of CC1(COc2ccc(C#N)cc2)CC(C)(C)OC(c2cnc3c(F)cccc3c2)=N1 (stereo not drawn) [E.01, 4-[[2-(8-fluoro-3-quinolyl)-4,6,6-trimethyl-5H-1,3-oxazin-4-yl]methoxy]benzonitrile], the inhibition of growth at 20 ppm [1] is reported as no less than 80% and the inhibition of growth at 20 ppm [2] is reported as no less than 80%.
Work on CC(C)CC1(C)CC(C)(C)OC(c2cnc3c(F)c(F)ccc3c2)=N1 (stereo not drawn) [E.014, 2-(7,8-difluoro-3-quinolyl)-4-isobutyl-4,6,6-trimethyl-5H-1,3-oxazine] yielded an inhibition of growth at 20 ppm [1] of no less than 80%, an inhibition of growth at 20 ppm [2] of no less than 80% and an inhibition of growth at 20 ppm [3] of no less than 80%.
Compound CC(C)CC1(C)CC(C)(C)OC(c2cnc3c(F)cccc3c2)=N1 (stereo not drawn) [E.013, 2-(8-fluoro-3-quinolyl)-4-isobutyl-4,6,6-trimethyl-5H-1,3-oxazine] has an inhibition of growth at 20 ppm [1] of no less than 80%, an inhibition of growth at 20 ppm [2] of no less than 80% and an inhibition of growth at 20 ppm [3] of no less than 80%.
With CC1(COc2ccccc2)CC(C)(C)OC(c2cnc3c(F)cccc3c2)=N1 (stereo not drawn) [E.08, 2-(8-fluoro-3-quinolyl)-4,6,6-trimethyl-4-(phenoxymethyl)-5H-1,3-oxazine] the inhibition of growth at 20 ppm [1] was no less than 80%, the inhibition of growth at 20 ppm [2] was no less than 80% and the inhibition of growth at 20 ppm [3] was no less than 80%.
With C=C(C)CC1(CC)CC(C)(C)OC(c2cnc3c(F)cccc3c2)=N1 (stereo not drawn) [E.020, 4-ethyl-2-(8-fluoro-3-quinolyl)-6,6-dimethyl-4-(2-methylallyl)-5H-1,3-oxazine] the inhibition of growth at 20 ppm [1] was no less than 80%, the inhibition of growth at 20 ppm [2] was no less than 80% and the inhibition of growth at 20 ppm [3] was no less than 80%.
Compound CC1(C)CC(CCC(F)(F)F)N=C(c2cnc3c(F)c(F)ccc3c2)O1 (stereo not drawn) [E.010, 2-(7,8-difluoro-3-quinolyl)-6,6-dimethyl-4-(3,3,3-trifluoropropyl)-4,5-dihydro-1,3-oxazine] has an inhibition of growth at 20 ppm [1] of no less than 80% and an inhibition of growth at 20 ppm [2] of no less than 80%.
For C=C(C)CC1(C)CC(C)(C)OC(c2cnc3c(F)cccc3c2)=N1 (stereo not drawn) [E.019, 2-(8-fluoro-3-quinolyl)-4,6,6-trimethyl-4-(2-methylallyl)-5H-1,3-oxazine], the inhibition of growth at 20 ppm [1] was no less than 80%, the inhibition of growth at 20 ppm [2] was no less than 80% and the inhibition of growth at 20 ppm [3] was no less than 80%.
CC1(C)CC(COc2ccccc2)N=C(c2cnc3c(F)c(F)ccc3c2)O1 (stereo not drawn) [E.07, 2-(7,8-difluoro-3-quinolyl)-6,6-dimethyl-4-(phenoxymethyl)-4,5-dihydro-1,3-oxazine] gave an inhibition of growth at 20 ppm [1] of no less than 80% and an inhibition of growth at 20 ppm [2] of no less than 80%.
C=C(C)CC1(C)CC(C)(C)OC(c2cnc3c(F)c(F)ccc3c2)=N1 (stereo not drawn) [E.016, 2-(7,8-difluoro-3-quinolyl)-4,6,6-trimethyl-4-(2-methylallyl)-5H-1,3-oxazine] gave an inhibition of growth at 20 ppm [1] of no less than 80%, an inhibition of growth at 20 ppm [2] of no less than 80% and an inhibition of growth at 20 ppm [3] of no less than 80%.
With CC1(COc2ccc(Br)cc2)CC(C)(C)OC(c2cnc3c(F)cccc3c2)=N1 (stereo not drawn) [E.03, 4-[(4-bromophenoxy)methyl]-2-(8-fluoro-3-quinolyl)-4,6,6-trimethyl-5H-1,3-oxazine] the inhibition of growth at 20 ppm [1] was no less than 80%, the inhibition of growth at 20 ppm [2] was no less than 80% and the inhibition of growth at 20 ppm [3] was no less than 80%.
Compound CCC1(C)CC(C)(CC(C)C)N=C(c2cnc3c(F)cccc3c2)O1 (stereo not drawn) [E.018, 6-ethyl-2-(8-fluoro-3-quinolyl)-4-isobutyl-4,6-dimethyl-5H-1,3-oxazine] has an inhibition of growth at 20 ppm [1] of no less than 80%, an inhibition of growth at 20 ppm [2] of no less than 80% and an inhibition of growth at 20 ppm [3] of no less than 80%.
For CC(C)CC1(C)CC(C)(C(C)C)OC(c2cnc3c(F)cccc3c2)=N1 (stereo not drawn) [E.017, 2-(8-fluoro-3-quinolyl)-4-isobutyl-6-isopropyl-4,6-dimethyl-5H-1,3-oxazine], the inhibition of growth at 20 ppm [1] was no less than 80%, the inhibition of growth at 20 ppm [2] was no less than 80% and the inhibition of growth at 20 ppm [3] was no less than 80%.
Work on CC(C)(C)CC1CC(C)(C)OC(c2cnc3c(F)c(F)ccc3c2)=N1 (stereo not drawn) [E.011, 2-(7,8-difluoro-3-quinolyl)-4-(2,2-dimethylpropyl)-6,6-dimethyl-4,5-dihydro-1,3-oxazine] yielded a melting point of 112 to 113 °C, an inhibition of growth at 20 ppm [1] of no less than 80% and an inhibition of growth at 20 ppm [2] of no less than 80%.
With CC1(C)CC(CC(F)(F)F)N=C(c2cnc3c(F)c(F)ccc3c2)O1 (stereo not drawn) [E.09, 2-(7,8-difluoro-3-quinolyl)-6,6-dimethyl-4-(2,2,2-trifluoroethyl)-4,5-dihydro-1,3-oxazine] the melting point was 146 to 148 °C and the inhibition of growth at 20 ppm [1] was no less than 80%.
Compound Cc1nc2c(F)c(F)ccc2cc1C1=NC(C)(COc2ccccc2)CC(C)(C)O1 (stereo not drawn) [E.05, 2-(7,8-difluoro-2-methyl-3-quinolyl)-4,6,6-trimethyl-4-(phenoxymethyl)-5H-1,3-oxazine] has an inhibition of growth at 20 ppm [1] of no less than 80% and an inhibition of growth at 20 ppm [2] of no less than 80%.
